Reference: ChEMBL document CHEMBL1134223, “Design of non-peptide CCK2 and NK1 peptidomimetics using 1-(2-nitrophenyl)thiosemicarbazide as a novel common scaffold” (Bioorg Med Chem Lett, 2001)

What was measured:
[1] = molecular target: T1, B2 bradykinin receptor (Rattus norvegicus, UniProt P25023); test: In vitro binding affinity against Bradykinin receptor B2 in rat NG 108-15 neuroblastoma-glioma hybrid cell membranes using [3H]BK binding assay
T1 sequence (P25023 whole entry): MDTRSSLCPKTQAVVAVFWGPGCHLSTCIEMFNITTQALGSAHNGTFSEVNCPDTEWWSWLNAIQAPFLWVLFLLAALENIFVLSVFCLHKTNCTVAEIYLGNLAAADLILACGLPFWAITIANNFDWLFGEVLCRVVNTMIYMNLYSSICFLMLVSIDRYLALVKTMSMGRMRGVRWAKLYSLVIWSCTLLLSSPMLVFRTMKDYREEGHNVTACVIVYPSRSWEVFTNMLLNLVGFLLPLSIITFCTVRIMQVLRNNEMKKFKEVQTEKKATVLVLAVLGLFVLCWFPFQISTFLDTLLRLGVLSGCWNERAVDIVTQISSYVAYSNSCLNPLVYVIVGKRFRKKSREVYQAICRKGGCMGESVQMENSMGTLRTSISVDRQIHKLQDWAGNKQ

[2] = molecular target: Substance-P receptor (Rattus norvegicus, UniProt P14600); test: In vitro binding affinity against Tachykinin receptor 1 in rat whole forebrain membranes using [3H][Sar9Met(O2)]-SP binding assay; assay type: cell membranes, Membrane
[3] = molecular target: T2, Gastrin/cholecystokinin type B receptor (Mus musculus, UniProt P56481); test: In vitro binding affinity against Cholecystokinin type B receptor in mouse cerebral cortical membranes using [125I]Tyr(SO3H)27]-CCK-8 binding assay; assay type: cell membranes
T2 sequence (P56481 whole entry): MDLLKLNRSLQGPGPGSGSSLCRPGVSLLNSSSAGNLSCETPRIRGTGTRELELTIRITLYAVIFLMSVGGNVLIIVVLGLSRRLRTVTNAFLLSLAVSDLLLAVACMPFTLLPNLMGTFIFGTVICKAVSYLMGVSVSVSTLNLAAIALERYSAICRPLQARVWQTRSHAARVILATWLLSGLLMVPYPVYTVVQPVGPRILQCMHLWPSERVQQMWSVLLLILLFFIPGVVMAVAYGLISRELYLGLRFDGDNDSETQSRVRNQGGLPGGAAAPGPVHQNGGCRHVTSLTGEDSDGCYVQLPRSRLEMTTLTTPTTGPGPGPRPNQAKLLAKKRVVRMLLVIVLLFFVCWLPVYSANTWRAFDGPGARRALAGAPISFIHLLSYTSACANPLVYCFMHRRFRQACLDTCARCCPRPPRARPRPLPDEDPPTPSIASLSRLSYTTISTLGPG

[4] = molecular target: Substance-P receptor (Cavia porcellus, UniProt P30547); test: In vitro binding affinity against Tachykinin receptor 1 in guinea pig ileum using organ bath assay; assay type: tissue-based
Chain of Substance-P receptor (Cavia porcellus, UniProt P30547) (P30547 whole entry): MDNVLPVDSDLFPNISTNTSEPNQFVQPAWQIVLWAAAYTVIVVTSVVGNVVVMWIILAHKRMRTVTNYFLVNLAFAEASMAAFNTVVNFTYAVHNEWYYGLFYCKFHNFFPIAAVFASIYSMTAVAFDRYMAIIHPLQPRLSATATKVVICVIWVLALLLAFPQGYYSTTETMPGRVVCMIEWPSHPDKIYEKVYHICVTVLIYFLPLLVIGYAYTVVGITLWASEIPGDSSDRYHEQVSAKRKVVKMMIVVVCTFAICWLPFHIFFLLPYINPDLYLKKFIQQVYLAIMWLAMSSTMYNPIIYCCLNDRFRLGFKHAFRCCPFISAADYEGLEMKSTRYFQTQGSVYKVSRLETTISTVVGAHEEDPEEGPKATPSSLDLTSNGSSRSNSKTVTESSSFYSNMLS

Chain of Substance-P receptor (Rattus norvegicus, UniProt P14600) (P14600 whole entry): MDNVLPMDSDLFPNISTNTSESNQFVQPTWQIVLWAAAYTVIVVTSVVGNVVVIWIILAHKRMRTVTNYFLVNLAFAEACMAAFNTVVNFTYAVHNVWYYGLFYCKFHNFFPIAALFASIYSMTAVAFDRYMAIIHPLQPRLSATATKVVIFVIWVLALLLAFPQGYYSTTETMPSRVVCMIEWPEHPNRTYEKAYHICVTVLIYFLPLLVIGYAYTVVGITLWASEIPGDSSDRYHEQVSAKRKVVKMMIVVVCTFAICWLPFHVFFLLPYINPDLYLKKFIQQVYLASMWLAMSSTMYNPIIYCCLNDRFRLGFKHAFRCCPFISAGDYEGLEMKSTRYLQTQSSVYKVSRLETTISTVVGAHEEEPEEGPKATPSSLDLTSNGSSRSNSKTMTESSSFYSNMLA

## CSCCNS(=O)(=O)c1ccc(N/N=C(\S)N2CCC[C@@H]2C(=O)NCc2ccccc2)c([N+](=O)[O-])c1
[1]
  IC50: > 100 µM
[2]
  IC50: > 100 µM

## O=C(O)CCCNS(=O)(=O)c1ccc(N/N=C(/S)NCCc2c[nH]c3ccccc23)c([N+](=O)[O-])c1
[1]
  IC50: > 100 µM
[3]
  IC50: 11 µM

## O=C(O)c1ccc(NC(=S)NNc2ccc(S(=O)(=O)NCCc3c[nH]c4ccccc34)cc2[N+](=O)[O-])cc1
[1]
  IC50: > 100 µM
[3]
  IC50: 24 µM

## O=C(O)CNS(=O)(=O)c1ccc(NNC(=S)NCCc2c[nH]c3ccccc23)c([N+](=O)[O-])c1
[1]
  IC50: > 100 µM
[3]
  IC50: 46 µM

## O=C(O)c1ccccc1NS(=O)(=O)c1ccc(N/N=C(/S)NCCc2c[nH]c3ccccc23)c([N+](=O)[O-])c1
[1]
  IC50: > 100 µM
[3]
  IC50: 4.5 µM

## O=C(O)c1ccc(NS(=O)(=O)c2ccc(N/N=C(/S)NCCc3c[nH]c4ccccc34)c([N+](=O)[O-])c2)cc1
[1]
  IC50: > 100 µM
[3]
  IC50: 10 µM

## O=C(O)c1cccc(NS(=O)(=O)c2ccc(NNC(=S)NCCc3c[nH]c4ccccc34)c([N+](=O)[O-])c2)c1
[1]
  IC50: > 100 µM
[3]
  IC50: 3.6 µM

## CSCCNS(=O)(=O)c1ccc(N/N=C(\S)N2CCC[C@H]2C(=O)NCc2ccccc2)c([N+](=O)[O-])c1
[1]
  IC50: > 100 µM
[2]
  IC50: > 100 µM

## O=C(O)c1cccc(N(Cc2ccccc2)S(=O)(=O)c2ccc(NNC(=S)NCCc3c[nH]c4ccccc34)c([N+](=O)[O-])c2)c1
[1]
  IC50: > 100 µM
[3]
  IC50: 4 µM

## O=C(O)CN(Cc1ccccc1)S(=O)(=O)c1ccc(N/N=C(/S)NC(c2ccccc2)c2ccccc2)c([N+](=O)[O-])c1
[1]
  IC50: 0.41 µM
[3]
  IC50: 1.9 µM

## CSCCNS(=O)(=O)c1ccc(N/N=C(\S)N2CCC[C@H]2C(=O)NC(c2ccccc2)c2ccccc2)c([N+](=O)[O-])c1
[4]
  IC50: 0.98 µM
[1]
  IC50: > 100 µM

## O=C(O)CN(CCc1ccccc1)S(=O)(=O)c1ccc(N/N=C(/S)NCCc2c[nH]c3ccccc23)c([N+](=O)[O-])c1
[1]
  IC50: > 100 µM
[3]
  IC50: 6 µM

## O=C(O)CN(Cc1ccccc1)S(=O)(=O)c1ccc(NNC(=S)NCCc2c[nH]c3ccccc23)c([N+](=O)[O-])c1
[1]
  IC50: > 100 µM
[3]
  IC50: 1.8 µM

## O=C(NC(c1ccccc1)c1ccccc1)[C@H]1CCCN1/C(S)=N/Nc1ccccc1[N+](=O)[O-]
[4]
  IC50: 2.31 µM
[1]
  IC50: > 100 µM
[2]
  IC50: > 100 µM

## O=C(O)CCN(Cc1ccccc1)S(=O)(=O)c1ccc(NNC(=S)NCCc2c[nH]c3ccccc23)c([N+](=O)[O-])c1
[1]
  IC50: > 100 µM
[3]
  IC50: 0.51 µM

## O=C(O)CCNS(=O)(=O)c1ccc(N/N=C(/S)NCCc2c[nH]c3ccccc23)c([N+](=O)[O-])c1
[1]
  IC50: > 100 µM
[3]
  IC50: 24 µM

## CSCCNS(=O)(=O)c1ccc(N/N=C(\S)N2CCC[C@@H]2C(=O)NC(c2ccccc2)c2ccccc2)c([N+](=O)[O-])c1
[4]
  IC50: 7.93 µM
[1]
  IC50: > 100 µM

## O=C(O)CN(CCCc1ccccc1)S(=O)(=O)c1ccc(N/N=C(/S)NCCc2c[nH]c3ccccc23)c([N+](=O)[O-])c1
[1]
  IC50: > 100 µM
[3]
  IC50: 6 µM

## O=C(NC(c1ccccc1)c1ccccc1)[C@@H]1CCCN1/C(S)=N/Nc1ccccc1[N+](=O)[O-]
[4]
  IC50: 1.67 µM
[1]
  IC50: > 100 µM
[2]
  IC50: > 100 µM

## O=C(O)CCCN(Cc1ccccc1)S(=O)(=O)c1ccc(N/N=C(/S)NCCc2c[nH]c3ccccc23)c([N+](=O)[O-])c1
[1]
  IC50: > 100 µM
[3]
  IC50: 2.43 µM

## O=C(O)c1cccc(NC(=S)NNc2ccc(S(=O)(=O)NCCc3c[nH]c4ccccc34)cc2[N+](=O)[O-])c1
[1]
  IC50: > 100 µM
[3]
  IC50: 31 µM

## COc1ccccc1CN[C@H]1CCCN[C@H]1c1ccccc1 [CP-99994]
[4]
  IC50: 0.0029 µM
